The results in this text go back to US9902709B2, “Polysubstituted pyridine compound, preparation method, use and pharmaceutical composition” (PEKING UNIVERSITY FOUNDER GROUP CO., LTD., priority 2014, dated 2018).

The IC50 is the midpoint of a concentration-inhibition curve. The low end stands for inhibition by little substance, the high end for a need for much substance. As a reminder, the bioavailability is dose-corrected exposure relative to a reference, in per cent.

The test system of data set [1] is HepG2 human liver cancer cell strain. The data set is described as follows: In vitro anti-proliferation of tumor cells (CCK-8), HepG2. Type of data set: cell-based. The conditions noted are these: HepG2, 72 hours. How it is done: (§1) Experimental Example 2: Determination of the Compounds According to the Present Invention for IC50 of the In Vitro Anti-Proliferation of Tumor Cells
HepG2 human liver cancer cell strain (purchased from Shanghai Institute of Cell Biology, Chinese Academy of Sciences);
(§2) Preparation of a compound: the compound was diluted with DMSO to a final concentration of 10 mM.
(§3) a) Cells in logarithmic growth phase were collected, counted, and re-suspended in complete medium. The concentration of cells was adjusted to a suitable concentration (determined depending on the result of optimization experiment of cell density), and the cells were seeded to a 96-well plate at 100 μl cell suspension per well. The cells were incubated in an incubator at 37° C., 100% relative humidity, 5% CO2 for 24 hours.
(§4) b) A test compound was diluted with the culture medium to 500 μM, and then gradient dilution was performed for 8 times. Cells were added at 25 μl/well. The final concentrations of the compound was in a range from 100 μM and 0 μM, 4-fold diluted, including 10 concentrations.
(§5) c) The cells were incubated in an incubator at 37° C., 100% relative humidity, 5% CO2 for 72 hours.
(§6) d) The culture medium was withdraw and discarded, the complete medium containing 10% CCK-8 was added, and then the cells were incubated in an incubator at 37° C. for 2-4 hours.
(§7) IC50 curve was fitted and IC50 value was calculated by professional software GraphPad Prism 5.0.
(§8) In the experiment, the compounds according to the present invention were determined for their IC50 values of in vitro anti-proliferation of tumor cell strains. The final concentrations of the compounds was in a range from 100 μM and 0 μM, 4-fold diluted, including 10 concentrations.

Data set [2] deals with MDA-MB-231 human mammary cancer cell strain. The data set can be described thus: In vitro anti-proliferation of tumor cells (CCK-8), MDA-MB-231. The following applies: for IC50: Homo sapiens, MDA-MB-231, 72 hours, CCK-8. Type of data set: cell-based. As to the method:
as §1
MDA-MB-231 human mammary cancer cell strain (purchased from Shanghai Institute of Cell Biology, Chinese Academy of Sciences);
as §2, §3, §4, §5, §6, §7, §8

Data set [3] has as its system MiaPaCa-2 human pancreatic cancer cell strain. The data set is described as follows: In vitro anti-proliferation of tumor cells (CCK-8), MiaPaCa-2. The following applies: MIA PaCa-2, MiaPaCa-2, 72 hours. Type of data set: cell-based. As to the method: as §1
MiaPaCa-2 human pancreatic cancer cell strain (purchased from American ATCC);
as §2, §3, §4, §5, §6, §7, §8

Another data set is described as follows: Pharmacokinetics in mice. Type of data set: in vivo. The following applies: female, plasma, CD-1 mouse; for bioavailability: PO 5 mg/kg vs IV 1 mg/kg, read-out: F (oral bioavailability); for AUC(0-t): read-out: AUClast (area under the curve). How it is done: Administration route: intravenous injection (IV); per os (PO).
Fasting condition: free access to water, no fasting.
The mice were weighed before administration, and the administration volume was calculated based on their body weights (IV group: 4 mL/kg; PO group: 10 mL/kg).
Administration route and dose: Intravenous (IV) group: 1 mg/kg; Oral (PO) group: 5 mg/kg.
Animal grouping: 3 mice/group, an IV group and a PO group for each test compound.
After administration, 30 μL whole blood was collected from rim of the eyes of mice in the IV group at each pre-determined time point (5 min, 15 min, 30 min, 1 h, 2 h, 4 h, 8 h, 24 h), and 30 μL whole blood was collected from rim of the eyes of mice in the PO group at each pre-determined time point (15 min, 30 min, 1 h, 2 h, 4 h, 8 h, 24 h). The whole blood was centrifuged (6,000 rpm, 5 min) to get blood plasma. All the blood plasma samples were stored in a refrigerator of −80° C. for further analysis.
Conditions of LC/MS/MS was as follows:
Pharmacokinetic parameters were estimated according to non-compartment model (calculated by WinNonlin software): […]
IV paramater: t1/2 (hr); C0 (ng/mL); AUClast (hr*ng/mL); AUCInf (hr*ng/mL); AUC Extr (%); Vz (L/kg); Vss (L/kg); CL (mL/min/kg); MRT (hr).
PO parameter: t1/2 (hr); tmax (hr); Cmax (ng/mL); AUClast (hr*ng/mL); AUCInf (hr*ng/mL); AUC Extr (%); MRT (hr); AUC/D (hr*mg/mL); F (%).

Data set [4] has as its system HL-60 human acute myeloid leukemia cell strain. The data set can be described thus: In vitro anti-proliferation of tumor cells (CCK-8), HL-60. Type of data set: cell-based. The following applies: HL-60, 72 hours. As to the method:
as §1
HL-60 human acute myeloid leukemia cell strain (purchased from Shanghai Institute of Cell Biology, Chinese Academy of Sciences);
as §2, §3, §4, §5, §6, §7, §8

For data set [5], the system named is NCI-H460 Human large cell lung cancer cell strain. The data set can be described thus: In vitro anti-proliferation of tumor cells (CCK-8), NCI-H460. Type of data set: cell-based. The following applies: NCI-H460, 72 hours. How it is done: as §1
NCI-H460 Human large cell lung cancer cell strain (purchased from Shanghai Institute of Cell Biology, Chinese Academy of Sciences);
as §2, §3, §4, §5, §6, §7, §8

Data set [6] concerns 786-O human renal clear cell carcinoma cell strain. The data set can be described thus: In vitro anti-proliferation of tumor cells (CCK-8), 786-O. Type of data set: cell-based. The conditions noted are these: 786-0, 72 hours. As to the method: as §1
786-O human renal clear cell carcinoma cell strain (purchased from Shanghai Institute of Cell Biology, Chinese Academy of Sciences);
as §2, §3, §4, §5, §6, §7, §8

Data set [7] relates to HCT116 human colon cancer cell strain. The data set can be described thus: In vitro anti-proliferation of tumor cells (CCK-8), HCT-116. The following applies: HCT-116, 72 hours. Type of data set: cell-based. How it is done:
as §1
HCT116 human colon cancer cell strain (purchased from Shanghai Institute of Cell Biology, Chinese Academy of Sciences);
as §2, §3, §4, §5, §6, §7, §8

For data set [8], the system named is SK-OV-3 human ovarian cancer cell strain. The data set is described as follows: In vitro anti-proliferation of tumor cells (CCK-8), SK-OV-3. Type of data set: cell-based. The conditions noted are these: SK-OV-3, 72 hours. As to the method:
as §1
SK-OV-3 human ovarian cancer cell strain (purchased from Shanghai Institute of Cell Biology, Chinese Academy of Sciences);
as §2, §3, §4, §5, §6, §7, §8

Data set [9] relates to A498 human renal carcinoma cell strain. The data set is described as follows: In vitro anti-proliferation of tumor cells (CCK-8), A498. The conditions noted are these: A498, 72 hours. Type of data set: cell-based. As to the method: as §1
A498 human renal carcinoma cell strain (purchased from Shanghai Institute of Cell Biology, Chinese Academy of Sciences);
as §2, §3, §4, §5, §6, §7, §8

[10] abbreviates: PO 5 mg/kg, average of three mice.

As for `CNC(=O)c1cc(Oc2ccc(NC(=O)Nc3ccc(Cl)c(C(F)(F)F)c3)cc2)ccn1` [Comparative example 1, Sorafenib, reference compound], the IC50 in [1] is 0.947 µM; in data set [2], 10 µM; in [3], 3.06 µM; in data set [4] it was 22 µM; in data set [5], 1.27 µM; in data set [6], 4.51 µM. The IC50 came to 4.56 µM in data set [7], 17.9 µM in [8] and 5.49 µM in data set [9]. Also, the bioavailability in the data set “Pharmacokinetics in mice” was 78.6%. In addition, the AUC(0-t) in the data set “Pharmacokinetics in mice” (setting [10]) was found to be 18900 ng·h/mL.

`Cn1cc(-c2nccc(Oc3ccc(NC(=O)Nc4ccc(Cl)c(C(F)(F)F)c4)cc3)c2Cl)cn1` [Example 2, 1-(4-chloro-3-(trifluoromethyl)phenyl)-3-(4-(3-chloro-2-(1-methyl-pyrazol-4-yl)-pyridin-4-yl-oxy)phenyl)urea]: the IC50 in data set [1] was determined as 0.808 µM; in [2] it was 3.05 µM; in data set [3] it was 2.34 µM; in data set [4] it was 18.2 µM; in [5] it was 1.05 µM; in data set [6] it was 2.77 µM. In addition, the IC50 in data set [7] was 3.16 µM; in data set [8], 5.76 µM; in data set [9], 4.71 µM. Also, the “IC50 as fold of that of Sorafenib” value in data set [2] (MDA-MB-231 cell line) was 0.30 fold. The bioavailability in “Pharmacokinetics in mice” was 82.9%. Besides, in the data set “Pharmacokinetics in mice” (setting [10]), the AUC(0-t) was 56600 ng·h/mL. In addition, the Cmax in “Pharmacokinetics in mice” (PO 5 mg/kg, average of three mice, read-out: Cmax (peak concentration)) was 3010 ng/mL.
